Laboratory results taken from ChEMBL document CHEMBL1201862, “PubChem BioAssay data set” (2004).
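Method: 48-hour compound exposure of cells in 96-well plates, five concentrations, linear interpolation of endpoints. The concentration for 50% growth inhibition is given as GI50.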 The source made the active and inactive calls. Rule as the data show it: active = GI50 up to about 1.1 µM and inactive = higher.

Legend:
Assay in all cases: inhibition of tumour cell growth, NCI panel, 48 h
OVCAR-3 = test system: OVCAR-3
KM12 = test system: KM12
SF-539 = test system: SF-539
CCRF-CEM = test system: CCRF-CEM
NCI-H23 = test system: NCI-H23
HOP-62 = test system: HOP-62
SF-295 = test system: SF-295
A549 = test system: A549
NCI-H460 = test system: NCI-H460
LOX IMVI = test system: LOX IMVI
U-251 = test system: U-251
UACC-62 = test system: UACC-62
HOP-92 = test system: HOP-92

Measured: GI50

CC(=O)Nc1ccc(C(=O)N2N=C(C)/C(=C\c3c(O)ccc4ccccc34)C2=O)cc1
inactive: OVCAR-3 91.8 µM | KM12 > 100 µM | SF-539 56.4 µM | CCRF-CEM 26.8 µM | NCI-H23 > 100 µM | HOP-62 > 100 µM | SF-295 40.5 µM | A549 > 100 µM | NCI-H460 > 100 µM | LOX IMVI 59.8 µM

O=S1(=O)OCCOS(=O)(=O)C1Cc1ccccc1
inactive: OVCAR-3 20.8 µM | KM12 > 100 µM | SF-539 26.5 µM | U-251 24.4 µM | NCI-H23 64.1 µM | HOP-62 52.8 µM | SF-295 53.8 µM | A549 44.3 µM | NCI-H460 33.2 µM | UACC-62 40.8 µM | LOX IMVI 35.7 µM | HOP-92 70.6 µM

Cn1cc(NC(=O)c2cc(NC(=O)CCCCCCCCCCC(=O)Nc3cc(C(=O)Nc4cc(C(=O)NCCC(=N)N)n(C)c4)n(C)c3)cn2C)cc1C(=O)NCCC(=N)N
inactive: OVCAR-3 52.7 µM | KM12 12.4 µM | SF-539 47.6 µM | U-251 33 µM | CCRF-CEM 50 µM | NCI-H23 32 µM | HOP-62 25.9 µM | SF-295 50.8 µM | A549 22.2 µM | NCI-H460 18.6 µM | UACC-62 7.5 µM | LOX IMVI 40.4 µM

CC1=CC(N2C(=O)C(C)=CC2O)NC1=O (stereo not drawn)
inactive: OVCAR-3 > 100 µM | KM12 > 100 µM | SF-539 > 100 µM | U-251 > 100 µM | NCI-H23 > 100 µM | HOP-62 > 100 µM | SF-295 > 100 µM | A549 > 100 µM | NCI-H460 > 100 µM | LOX IMVI > 100 µM | HOP-92 > 100 µM

O=c1/c(=C/c2ccccc2O)sc2nc3ccccc3n12
inactive: OVCAR-3 29.7 µM | SF-539 35.5 µM | CCRF-CEM 16.3 µM | NCI-H23 38.7 µM | SF-295 34.3 µM | A549 41.8 µM | NCI-H460 35 µM | UACC-62 23.1 µM | LOX IMVI 35.5 µM | HOP-92 24.4 µM

CN1c2ccccc2N(C(=O)c2ccc(Cl)cc2)C(CC(=O)O)c2cccn21 (stereo not drawn)
inactive: OVCAR-3 > 100 µM | KM12 > 100 µM | SF-539 > 100 µM | CCRF-CEM > 100 µM | NCI-H23 > 100 µM | HOP-62 > 100 µM | SF-295 > 100 µM | A549 > 100 µM | NCI-H460 > 100 µM | UACC-62 > 100 µM | LOX IMVI > 100 µM | HOP-92 > 100 µM

COC(=O)C(=O)C(C(C)=O)C(=O)NCc1ccc(OC)c(OC)c1 (stereo not drawn)
inactive: OVCAR-3 > 100 µM | KM12 > 100 µM | SF-539 > 100 µM | U-251 > 100 µM | CCRF-CEM > 100 µM | NCI-H23 > 100 µM | HOP-62 > 100 µM | SF-295 > 100 µM | A549 > 100 µM | NCI-H460 > 100 µM | UACC-62 > 100 µM | LOX IMVI > 100 µM | HOP-92 > 100 µM

O=c1nc(/C=C/c2ccccc2Cl)cc2n1CCN2CCO
inactive: OVCAR-3 28.6 µM | KM12 59.4 µM | SF-539 > 100 µM | CCRF-CEM 50.4 µM | HOP-62 > 100 µM | SF-295 > 100 µM | NCI-H460 > 100 µM | UACC-62 > 100 µM | LOX IMVI > 100 µM | HOP-92 > 100 µM

CC1(C)OC2C(=O)OC(COCc3ccccc3)C2O1 (stereo not drawn)
inactive: OVCAR-3 > 100 µM | KM12 > 100 µM | SF-539 > 100 µM | U-251 > 100 µM | CCRF-CEM > 100 µM | NCI-H23 > 100 µM | HOP-62 > 100 µM | SF-295 > 100 µM | A549 > 100 µM | NCI-H460 > 100 µM | UACC-62 > 100 µM | LOX IMVI > 100 µM | HOP-92 > 100 µM
